In publication PMC9331150 (ACS Medicinal Chemistry Letters, 2022):

Tests used:
HCoV 229E 3CL^pro = HCoV 229E 3CL^pro (Human coronavirus 229E, UniProt P0C6U2); assay: biochemical; type: biochemical
HCoV 229E = type: cell-based
SARS-CoV-2 3CL^pro = SARS-CoV-2 3CL^pro (Severe acute respiratory syndrome coronavirus 2, UniProt P0DTD1); type: biochemical
SARS-CoV-2 = conditions: read-out: EC50 against SARS-CoV-2; human bronchial epithelial cells; cited from earlier work
rhinovirus infection = conditions: cited from earlier work

Sequence of HCoV 229E 3CL^pro (P0C6U2 2966-3267): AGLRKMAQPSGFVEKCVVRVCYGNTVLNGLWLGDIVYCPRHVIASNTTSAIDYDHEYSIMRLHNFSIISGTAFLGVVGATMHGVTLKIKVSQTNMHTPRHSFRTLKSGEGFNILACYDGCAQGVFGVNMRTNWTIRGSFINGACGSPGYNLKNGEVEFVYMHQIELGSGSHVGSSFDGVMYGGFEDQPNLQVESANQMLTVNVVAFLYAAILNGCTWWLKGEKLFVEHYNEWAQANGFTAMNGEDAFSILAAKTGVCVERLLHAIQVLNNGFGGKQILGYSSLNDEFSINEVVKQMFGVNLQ

SMILES: CC(C)(C)[C@H](NC(=O)C(F)(F)F)C(=O)N1C[C@H]2[C@@H]([C@H]1C(=O)NCCC1CCNC1=O)C2(C)C (stereo partly drawn) [Compound 1]
- IC50 (HCoV 229E 3CL^pro): > 100 µM

SMILES: CC(C)(C)[C@H](NC(=O)C(F)(F)F)C(=O)N1C[C@H]2[C@@H]([C@H]1C(=O)N[C@H](C=O)C[C@@H]1CCNC1=O)C2(C)C [Compound 2]
- fold less potent than nirmatrelvir (EC50, cell-based HCoV 229E) (HCoV 229E): ~4 fold
- fold inhibitory activity improvement for HCoV 229E 3CL^pro compared to nirmatrelvir (HCoV 229E 3CL^pro; IC50 ratio vs nirmatrelvir): 9 fold

SMILES: CC(C)(C)[C@H](NC(=O)C(F)(F)F)C(=O)N1C[C@H]2[C@@H]([C@H]1C(=O)N[C@H](CO)C[C@@H]1CCNC1=O)C2(C)C [Compound 3]
- IC50 (HCoV 229E 3CL^pro): > 100 µM

SMILES: CC(C)(C)[C@H](NC(=O)C(F)(F)F)C(=O)N1C[C@H]2[C@@H]([C@H]1C(=O)N[C@@H](C[C@@H]1CCNC1=O)C(N)=O)C2(C)C [Compound 4]
- IC50 (HCoV 229E 3CL^pro): > 100 µM

SMILES: COC(=O)[C@H](C[C@@H]1CCNC1=O)NC(=O)[C@@H]1[C@@H]2[C@H](CN1C(=O)[C@@H](NC(=O)C(F)(F)F)C(C)(C)C)C2(C)C [Compound 6]
- IC50 (HCoV 229E 3CL^pro): > 100 µM

SMILES: CC(C)(C)[C@H](NC(=O)C(F)(F)F)C(=O)N1C[C@H]2[C@@H]([C@H]1C(=O)N[C@@H](C[C@@H]1CCNC1=O)C(=O)C(=O)NC1CC1)C2(C)C [Compound 8]
- fold less potent than nirmatrelvir (EC50, cell-based HCoV 229E) (HCoV 229E): 11 fold
- fold improvement / more potent than nirmatrelvir (IC50, SARS-CoV-2 and HCoV 229E 3CL^pro) (SARS-CoV-2 3CL^pro): approximately 2 fold

SMILES: CC(C)(C)[C@H](NC(=O)C(F)(F)F)C(=O)N1C[C@H]2[C@@H]([C@H]1C(=O)N[C@@H](C[C@@H]1CCNC1=O)C(=O)COCc1ccccc1)C2(C)C [Compound 9]
- fold less potent than nirmatrelvir (EC50, cell-based HCoV 229E) (HCoV 229E): approximately 2 fold
- fold less potent than nirmatrelvir against HCoV 229E 3CL^pro (IC50) (HCoV 229E 3CL^pro): 3 fold

SMILES: CC(C)(C)[C@H](NC(=O)C(F)(F)F)C(=O)N1C[C@H]2[C@@H]([C@H]1C(=O)N[C@H](C#N)C[C@@H]1CCNC1=O)C2(C)C [Nirmatrelvir]
- EC50 (SARS-CoV-2): 0.075 µM

SMILES: CCOC(=O)/C=C/[C@H](C[C@@H]1CCNC1=O)NC(=O)[C@@H](CC(=O)[C@@H](NC(=O)c1cc(C)on1)C(C)C)Cc1ccc(F)cc1 [rupintrivir]
- efficacy against rhinovirus infection in phase 2 clinical trials (rhinovirus infection): lack of efficacy
